# What was measured:
# [1] = molecular target: T1, Protein deacetylase HDAC6 (Homo sapiens, UniProt Q9UBN7); assay: Inhibition of full length human N-terminal FLAG-tagged HDAC6 (1 to 1215 residues) expressed in HEK293 cells preincubated for 15 mins followed by acetyl-Gly-Ala-[acetyl-Lys]-AMC substrate addition measured after 30 mins by fluorimetric method; format: cell-based
# T1 sequence (Q9UBN7 whole entry): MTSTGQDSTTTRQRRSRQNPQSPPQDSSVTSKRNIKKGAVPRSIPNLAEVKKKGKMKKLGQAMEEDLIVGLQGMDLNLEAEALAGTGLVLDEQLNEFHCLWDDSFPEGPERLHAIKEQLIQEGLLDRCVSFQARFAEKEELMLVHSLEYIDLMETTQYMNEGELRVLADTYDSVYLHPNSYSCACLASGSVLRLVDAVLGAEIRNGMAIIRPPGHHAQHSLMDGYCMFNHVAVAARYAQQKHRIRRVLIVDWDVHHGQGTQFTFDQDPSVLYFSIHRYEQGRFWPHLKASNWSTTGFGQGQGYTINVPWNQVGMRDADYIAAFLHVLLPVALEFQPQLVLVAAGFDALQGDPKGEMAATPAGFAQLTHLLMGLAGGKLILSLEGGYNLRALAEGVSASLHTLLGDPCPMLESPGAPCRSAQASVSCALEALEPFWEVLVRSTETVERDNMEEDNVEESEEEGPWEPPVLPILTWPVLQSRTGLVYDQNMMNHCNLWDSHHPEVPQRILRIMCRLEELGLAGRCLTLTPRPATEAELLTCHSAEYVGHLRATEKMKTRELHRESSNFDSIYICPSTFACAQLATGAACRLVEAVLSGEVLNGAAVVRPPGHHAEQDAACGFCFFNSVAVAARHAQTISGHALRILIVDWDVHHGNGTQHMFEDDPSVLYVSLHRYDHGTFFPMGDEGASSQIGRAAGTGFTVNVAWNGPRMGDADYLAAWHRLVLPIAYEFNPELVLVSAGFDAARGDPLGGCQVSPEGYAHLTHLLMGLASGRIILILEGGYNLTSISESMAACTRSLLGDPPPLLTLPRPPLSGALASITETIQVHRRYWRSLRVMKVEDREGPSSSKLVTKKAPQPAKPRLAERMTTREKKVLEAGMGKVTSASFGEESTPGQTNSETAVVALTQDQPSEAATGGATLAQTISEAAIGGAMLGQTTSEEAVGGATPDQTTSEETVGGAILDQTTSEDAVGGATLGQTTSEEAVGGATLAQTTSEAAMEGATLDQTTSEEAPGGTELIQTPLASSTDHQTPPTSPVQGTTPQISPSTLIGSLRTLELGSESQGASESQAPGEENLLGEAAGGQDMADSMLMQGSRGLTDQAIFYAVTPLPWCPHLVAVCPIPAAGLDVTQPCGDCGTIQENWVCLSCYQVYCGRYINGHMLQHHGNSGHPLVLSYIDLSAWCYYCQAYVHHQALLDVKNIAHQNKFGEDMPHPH
# [2] = molecular target: T2, Histone deacetylase 8 (Homo sapiens, UniProt Q9BY41); assay: Inhibition of full length human N-terminal FLAG-tagged HDAC8 (1 to 377 residues) expressed in HEK293 cells preincubated for 15 mins followed by Boc-[trifluoroacetyl-Lys]-AMC substrate addition measured after 30 mins by fluorimetric method; format: cell-based
# T2 sequence (Q9BY41 whole entry): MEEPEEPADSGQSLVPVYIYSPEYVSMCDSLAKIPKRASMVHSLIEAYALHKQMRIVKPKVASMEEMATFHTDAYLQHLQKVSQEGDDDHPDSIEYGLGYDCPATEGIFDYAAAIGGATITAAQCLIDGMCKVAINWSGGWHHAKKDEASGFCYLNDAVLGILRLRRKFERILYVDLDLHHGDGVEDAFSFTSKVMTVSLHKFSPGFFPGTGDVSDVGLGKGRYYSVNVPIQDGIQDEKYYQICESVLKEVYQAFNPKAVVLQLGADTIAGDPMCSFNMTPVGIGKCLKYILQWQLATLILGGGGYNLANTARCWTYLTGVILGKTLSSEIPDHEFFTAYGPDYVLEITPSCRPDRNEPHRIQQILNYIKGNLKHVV
smiles,measurement,setting,value
O=C(CS)NCCCCCn1ccc2cc(Cl)c(Cl)cc21,IC50,[1],0.05 µM
same,IC50,[2],12 µM

# From ChEMBL document CHEMBL4325935, “Molecular Basis for the Selective Inhibition of Histone Deacetylase 6 by a Mercaptoacetamide Inhibitor” (ACS Med Chem Lett, 2018)
